Measured values taken from patent US5854081A, “Stable expression of human A2B adenosine receptors, and assays employing the same” (The University of Patent Foundation, priority 1996, dated 1998).
Where two headings read alike, the source gives them in different places.

What was measured:
[1] = molecular target: T1, A2B receptors (Homo sapiens, UniProt P29275); assay: Inhibition of NECA-stimulated cyclic AMP accumulation in A2B transfected HEK-293 cells (Schild analysis); assay type: cell-based; details: read-out: pA2 (antagonism, Schild analysis) (converted)
T1 construct: expressed in transfected cells; host or cells: HEK-293
T1 sequence (P29275 1-332): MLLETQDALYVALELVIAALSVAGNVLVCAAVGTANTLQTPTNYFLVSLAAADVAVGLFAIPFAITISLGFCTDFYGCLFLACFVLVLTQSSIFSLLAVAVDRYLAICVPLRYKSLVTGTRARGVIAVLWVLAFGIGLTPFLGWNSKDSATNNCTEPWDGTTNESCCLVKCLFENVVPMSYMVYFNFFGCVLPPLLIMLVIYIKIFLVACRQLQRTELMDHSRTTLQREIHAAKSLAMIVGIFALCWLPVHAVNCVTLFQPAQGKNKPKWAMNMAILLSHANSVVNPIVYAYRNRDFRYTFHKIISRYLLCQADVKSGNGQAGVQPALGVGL
Excerpt: The radioligands used to label the A1 and A2A receptors are commonly used and are commercially available. However, there are no reports in the literature of radioligands useful for detecting A2B receptors. […] Based on this observation [^3 H]DPX was custom triiated by NEN.

[2] = molecular target: recombinant human H/F-A2A adenosine receptor (Homo sapiens, UniProt P29274); assay: Competition for radioligand binding, H/F-A2A
Chain of recombinant human H/F-A2A adenosine receptor (P29274 with tags, fused parts or gaps): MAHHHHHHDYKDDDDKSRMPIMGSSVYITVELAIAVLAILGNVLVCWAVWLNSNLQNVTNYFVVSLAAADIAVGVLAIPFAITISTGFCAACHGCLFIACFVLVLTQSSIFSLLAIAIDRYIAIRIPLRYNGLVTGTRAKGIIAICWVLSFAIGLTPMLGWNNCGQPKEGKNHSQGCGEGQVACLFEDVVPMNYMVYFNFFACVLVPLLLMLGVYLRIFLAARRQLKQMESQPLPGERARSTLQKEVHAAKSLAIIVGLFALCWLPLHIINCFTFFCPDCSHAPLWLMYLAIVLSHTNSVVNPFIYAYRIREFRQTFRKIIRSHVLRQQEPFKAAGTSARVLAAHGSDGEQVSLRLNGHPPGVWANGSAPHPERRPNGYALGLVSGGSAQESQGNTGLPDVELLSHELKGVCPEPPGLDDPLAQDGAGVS

[3] = molecular target: recombinant human native-A2A adenosine receptor (Homo sapiens, UniProt P29274); assay: Competition for radioligand binding, native-A2A
Chain of recombinant human native-A2A adenosine receptor (P29274 whole entry): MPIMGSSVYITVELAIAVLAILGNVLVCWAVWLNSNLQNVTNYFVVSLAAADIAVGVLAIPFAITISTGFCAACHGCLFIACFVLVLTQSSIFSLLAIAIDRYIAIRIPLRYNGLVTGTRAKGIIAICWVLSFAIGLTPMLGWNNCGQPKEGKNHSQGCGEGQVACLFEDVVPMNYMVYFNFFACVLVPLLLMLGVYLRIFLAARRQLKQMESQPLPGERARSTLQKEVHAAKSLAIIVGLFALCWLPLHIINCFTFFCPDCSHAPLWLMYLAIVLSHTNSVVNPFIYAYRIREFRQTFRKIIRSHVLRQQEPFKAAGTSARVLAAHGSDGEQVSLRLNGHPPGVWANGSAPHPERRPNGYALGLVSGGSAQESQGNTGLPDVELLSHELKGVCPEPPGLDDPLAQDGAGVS

[4] = molecular target: T2, recombinant human H/F-A1 adenosine receptor (Homo sapiens, UniProt P30542); assay: Competition for radioligand binding, H/F-A1; details: competition with 1 nM ^125 I-ABA
T2 construct: expressed in transfected cells
T2 sequence (P30542 with tags, fused parts or gaps): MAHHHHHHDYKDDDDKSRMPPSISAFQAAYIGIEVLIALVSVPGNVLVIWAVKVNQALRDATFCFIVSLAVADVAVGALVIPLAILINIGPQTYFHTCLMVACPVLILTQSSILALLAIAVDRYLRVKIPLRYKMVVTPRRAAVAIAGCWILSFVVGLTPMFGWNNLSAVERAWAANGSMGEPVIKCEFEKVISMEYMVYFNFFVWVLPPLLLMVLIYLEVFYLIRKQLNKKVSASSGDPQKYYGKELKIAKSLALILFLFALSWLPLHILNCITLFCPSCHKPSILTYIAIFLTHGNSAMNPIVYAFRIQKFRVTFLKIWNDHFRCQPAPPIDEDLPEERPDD
Procedure: (§1) The experiments were performed in triplicate with 10 μg membrane protein in a total volume of 0.1 mL with 0.5 U/mL adenosine deaminase, with and without 5 mM MgCl2 for agonist and antagonist binding, respectively. […] Bmax and KD were calculated by nonlinear least squares interpolation for single or two-site binding models. K1 values for different compounds were derived from IC50 values. Data from replicate experiments were tabulated as means ± SEM.
(§2) Twelve compounds were evaluated to determine their potencies to compete for radioligand binding to native- and H/F-A1 or A2A receptors.

[5] = molecular target: T3, recombinant human native-A1 adenosine receptor (Homo sapiens, UniProt P30542); assay: Competition for radioligand binding, native-A1; parameters: expressed in transfected cells; details: competition with 1 nM ^125 I-ABA
T3 sequence (P30542 1-326): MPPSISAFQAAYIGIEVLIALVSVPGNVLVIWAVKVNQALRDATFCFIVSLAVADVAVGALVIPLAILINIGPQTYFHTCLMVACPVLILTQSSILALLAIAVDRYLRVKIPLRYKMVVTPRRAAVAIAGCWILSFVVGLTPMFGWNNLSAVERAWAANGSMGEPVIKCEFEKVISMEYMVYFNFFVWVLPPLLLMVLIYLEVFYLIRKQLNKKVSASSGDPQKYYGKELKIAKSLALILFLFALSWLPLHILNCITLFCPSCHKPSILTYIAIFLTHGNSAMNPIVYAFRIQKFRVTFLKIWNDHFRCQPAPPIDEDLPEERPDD
Procedure: as §1, §2

[6] = system: A3 AR; assay: Activation of A3 AR; details: >μM levels
[7] = system: H/F-A1 adenosine receptors; assay: Inhibition of cyclic AMP accumulation, CHO-K1 cells with H/F-A1; assay type: cell-based, human
Procedure: (§3) CHO-K1 cells were incubated without or with 100 mg/mL pertussis toxin. […] Five-hundred microliters of the supernatants were removed, acetylated, and assayed for cyclic AMP by automated radioimmunoassay.

[8] = system: untransfected CHO-K1 cells; assay: Cyclic AMP levels in untransfected CHO-K1 cells; assay type: cell-based; details: concentrations up to 1 μM
Procedure: as §3

[9] = system: H/F-A1 receptors
[10] = system: native A2A receptors; assay: Effect of GTPγS on agonist radioligand binding to native A2A; parameters: species or system human; details: Sf9 cell membranes
[11] = Block of ^125 I-ABA binding to lung membranes
[12] = molecular target: rat striatal A2A receptors; details: cited from earlier work
[13] = molecular target: T4, A2B adenosine receptors (Homo sapiens, UniProt P29275); assay: A2B radioligand binding assay; details: FIG. 6
T4 construct: made in house
T4 sequence (P29275 1-332): T1 sequence (P29275 1-332)

[14] = molecular target: T2, recombinant human H/F-A1 adenosine receptor; assay: Saturation radioligand binding, H/F-A1 (CHO-K1 membranes)
[15] = molecular target: T3, recombinant human native-A1 adenosine receptor; assay: Saturation radioligand binding, native-A1 (CHO-K1 membranes)
[16] = system: A3 AR; assay: A3 AR selectivity of radioligand; assay type: binding
Excerpt: These receptors can be labeled nonselectively by agonist radioligands that also label A1 AR.

[17] = system: sheep A3AR
[18] = system: rat A3AR
[19] = competition with 70 nM [^3 H]NECA
[20] = read-out: K1, competition with 70 nM [^3 H]NECA
[21] = ^125 I-ABA: high affinity sites

SMILES: CCn1c(=O)c2[nH]c(-c3ccccc3)nc2n(CC)c1=O [1,3-diethyl-8-phenylxanthine (DPX), 1,3-diethyl-8-phenylxanthine]
- Kb [1]: 0.03 µM

SMILES: CCCn1c(=O)c2nc(-c3ccc(OCC(=O)O)cc3)[nH]c2n(Cc2ccc(N)c(I)c2)c1=O [1ABOPX, 3-iodoaminobenzyl-1-propyl-8-p-(oxyacetate)-phenylxanthine]
- NH (Hill coefficient) [2, 19]: 0.94 ± 0.14
- Ki [2, 20]: 0.022 ± 0.0036 µM
- NH (Hill coefficient) [3, 19]: 0.84 ± 0.17
- Ki [3, 20]: 0.0237 ± 0.0075 µM

SMILES: Cn1c(=O)c2[nH]c(-c3ccc(S(=O)(=O)O)cc3)nc2n(C)c1=O [8-SPT, 8-P-sulfophenyltheophylline]
- NH (Hill coefficient) [4]: 0.84
- NH (Hill coefficient) [5]: 0.87 ± 0.05

SMILES: CCNC(=O)[C@H]1O[C@@H](n2cnc3c(N)nc(NCCc4ccc(CCC(=O)O)cc4)nc32)[C@H](O)[C@@H]1O [CGS21680, 2-(r-(s-carboxyethyl)phen-ethylamino)-5'-N-ethylcarboxamidondenosine]
- activation of A3 AR [6]: activate A3 AR

SMILES: OC[C@H]1O[C@@H](n2cnc3c(NC4CCCC4)ncnc32)[C@H](O)[C@@H]1O [CPA, N^6 -cyclopentyladenosine]
- inhibition of cyclic AMP accumulation [7]: potently inhibited
- inhibition of cyclic AMP accumulation after pertussis toxin ([7]; preincubated with pertussis toxin): abolished
- effect on cyclic AMP levels [8]: no effect
- NH (Hill coefficient) [4]: 0.79
- NH (Hill coefficient) [5]: 0.93 ± 0.16

SMILES: Nc1nc2c(ncn2[C@@H]2O[C@H](COP(=O)(O)OP(=O)(O)OP(O)(O)=S)[C@@H](O)[C@H]2O)c(=O)[nH]1 [GTPγS]
- reduction in number of high affinity agonist (^125 I-ABA) binding sites by GTPγS [9]: large reduction
- reduction of [^3 H]CGS21680 / [^3 H]NECA binding by GTPγS [10]: reduced only slightly

SMILES: CNC(=O)[C@H]1O[C@@H](n2cnc3c(NCc4cccc(I)c4)ncnc32)[C@H](O)[C@@H]1O [IB-MECA]
- block of ^125 I-ABA binding to lung membranes ([11]; concentration not given): blocked

SMILES: CCNC(=O)[C@H]1O[C@@H](n2cnc3c(N)ncnc32)[C@H](O)[C@@H]1O [NECA, 5'-N-ethylcarboxamidondenosine]
- NH (Hill coefficient) [4]: 0.97
- NH (Hill coefficient) [5]: 0.95 ± 0.09

SMILES: CC(C)N(C)c1nc2c(N[C@@H]3CC4CC3CC4O)ncnc2n1C (stereo partly shown) [WRC-0571]
- block of ^125 I-ABA binding to lung membranes ([11]; 1 μM): not blocked

SMILES: CCCn1c(=O)c2[nH]c(-c3ccc(OCC(=O)NCCN)cc3)nc2n(CCC)c1=O [XAC, xanthine amino congenen]
- NH (Hill coefficient) [4]: 0.96
- NH (Hill coefficient) [5]: 1.12 ± 0.11

SMILES: CCNC(=O)[C@H]1O[C@@H](n2cnc3c(N)nc(NCCc4ccc(CCC(=O)O)cc4)nc32)[C@H](O)[C@@H]1O [[^3 H]CGS21680]
- Kd ([12]; G protein coupled rat striatal A2A receptors): 0.0039 µM
- Kd ([12]; G protein uncoupled rat striatal A2A receptors): 0.051 µM

SMILES: CCn1c(=O)c2[nH]c(-c3ccccc3)nc2n(CC)c1=O [[^3 H]DPX]
- detection of A2B receptors by radioligand binding [13]: first successful detection of A2B adenosine receptors by radioligand binding

SMILES: Nc1ccc(CNc2ncnc3c2ncn3[C@@H]2O[C@H](CO)[C@@H](O)[C@H]2O)cc1I [^125 I-ABA]
- Kd [14, 21]: 0.00098 ± 0.00016 µM
- Kd [15, 21]: 0.102 ± 3e-05 µM

SMILES: Nc1ccc(CNc2ncnc3c2ncn3[C@@H]2O[C@H](CO)[C@@H](O)[C@H]2O)cc1[125I] [^125 I-ABA]
- Bmax [14]: 3.3 ± 0.5 pmol/mg protein
- Bmax [15]: 3.5 ± 0.8 pmol/mg protein

SMILES: CCCn1c(=O)c2[nH]c(-c3ccc(OCC(=O)O)cc3)nc2n(Cc2ccc(N)c([125I])c2)c1=O [^125 I-ABOPX]
- selectivity of radioligand [16]: A3 AR-selective

SMILES: Cn1c(=O)c2[nH]cnc2n(C)c1=O [theophylline]
- affinity for A3 AR [17]: very low affinity
- affinity for A3 AR [18]: very low affinity
